Assay results from PubChem BioAssay (NCI).
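The compound was tested at five concentrations on cells cultured in 96-well plates, with a 48-hour exposure period. The concentration for 50% growth inhibition is given as GI50. The concentration for full growth arrest is given as TGI.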

Tested on: MDA-MB-468 breast
Test: NCI tumour cell line growth inhibition, 48 h

O=C(/C=C/c1ccc(Cl)cc1)c1ccc(Nc2ccnc3cc(Cl)ccc23)cc1
GI50: 43100 nM
TGI: > 100000 nM

CCN(CC)c1ccc(-c2cc(-c3cc(OC)c(OC)c(OC)c3)nc(N3CCOCC3)c2C#N)cc1
GI50: 2580 nM
TGI: > 100000 nM

O=C1c2cc3c(cc2-c2c1c1ccc(F)cc1c(=O)n2CCCNCCO)OCO3
GI50: 22.8 nM
TGI: 70.5 nM

C/C(=C(/c1ccc(O)cc1)c1ccc(OCCN2CCCC2)cc1)c1ccc(Cl)cc1
GI50: 1880 nM
TGI: 4110 nM

COc1ccc(/C=C(/C#N)n2nnc3cccc(F)c32)cc1
GI50: 414 nM
TGI: 5120 nM

COc1cccc(-c2nc(-c3ccc(NC(=O)C(C)C)cc3)[nH]c2-c2ccnc(Br)c2)c1
GI50: 1890 nM
TGI: 5400 nM

O=C1OC(O)[C@@H]2[C@H]1[C@H]1CC[C@@H]2O1 (some centres undefined)
GI50: 85900 nM
TGI: > 100000 nM

CN(C(=O)c1ccc(C(F)(F)F)cc1)c1ccc(Oc2ccc3c(c2)cc(C(=O)N2CCN(Cc4ccc(OC(F)F)cc4)CC2)n3C)nc1
GI50: < 10 nM
TGI: 28600 nM

CCN1CCN(c2nc(C)cc(N(CCNc3ccnc4cc(Cl)ccc34)Cc3ccc4c(c3)OCO4)n2)CC1
GI50: 1550 nM
TGI: 3340 nM

Cn1cnc([N+](=O)[O-])c1S(=O)(=O)Oc1cccc2ccccc12
GI50: 1850 nM
TGI: 3840 nM

N#C/C(=N\Nc1ccc(F)cc1)C(=O)Nc1cc(-c2ccccc2)nn1-c1ccccc1
GI50: 1460 nM
TGI: 6010 nM

O=C(/C=C/c1ccncc1)c1cc(Cl)ccc1O
GI50: 18100 nM
TGI: 33000 nM

C=C1C(=O)O[C@H]2[C@H]1CC/C(COC(=O)c1c[nH]c3ccccc13)=C\CC[C@@]1(C)O[C@@H]21
GI50: 190 nM
TGI: 448 nM

CC[C@H](Nc1ncnc2nc[nH]c12)c1oc2ccccc2c(=O)c1-c1cccc(F)c1
GI50: 9080 nM
TGI: 34400 nM

OC(c1cc(-c2ccc(C(F)(F)F)cc2)nc(-c2ccc(C(F)(F)F)cc2)c1)C1CCCCN1 (centres undefined)
GI50: 1470 nM
TGI: 2820 nM

Fc1cc2[nH]ncc2c2c3c(c(-c4cn[nH]c4)nc12)CCCC3
GI50: 857 nM
TGI: 2580 nM

O=c1c2sccc2n(CC2COc3ccccc3O2)c(=O)n1O (centres undefined)
GI50: 4610 nM
TGI: 57400 nM

O=C(CSc1ccc(Cl)cc1)Nc1ccc(-c2nc3ccccc3s2)c(Cl)c1
GI50: 4520 nM
TGI: 48500 nM

Cc1cc(/C=C/c2ccc3cc(N(C)C)ccc3[n+]2C)c(C)n1-c1ccccc1
GI50: 48.6 nM
TGI: 230 nM

CN1CCN(CCCn2c(=O)c3sc4ncccc4c3n3nnc(-c4ccccc4)c23)CC1
GI50: 6840 nM
TGI: 13900 nM

O=C(CCc1nnc2sc(-c3ccc(Cl)cc3Cl)nn12)c1nc2ncccc2[nH]1
GI50: 2090 nM
TGI: 4410 nM

OCc1ccc(-c2ccc(-c3ccc(CO)s3)o2)s1
TGI: 23 nM

Nc1ncnc2c1nnn2C1OC(CO)C(O)C1O (centres undefined)
GI50: 234 nM
TGI: 1260 nM

COc1ccc(-c2nnc(COc3ccc(C(=O)/C=C/c4ccco4)cc3)o2)cc1
GI50: 1890 nM
TGI: 4120 nM

CC(C)[C@H]1COC(=O)N1[C@@H]1C(=O)N([C@@H](CCC(=O)N2CCN(C3CCCC3)CC2)C(=O)N[C@@H]2CCCc3ccccc32)[C@@H]1/C=C/c1cccc(Br)c1
GI50: 688 nM
TGI: 2120 nM

Cc1cc(-c2ccc3nc(C4CCOCC4)n(CCOC(F)(F)F)c3c2)cn(C)c1=O
GI50: 188 nM
TGI: 2250 nM

COc1cc(/C=C/C(=O)c2cc(OC)c(OC)c(OC)c2)ccc1OCc1ccccc1
GI50: 2150 nM
TGI: 7980 nM

COc1ccc(-c2nnc(COc3ccc(NC(=O)Nc4cc(C(F)(F)F)cc(C(F)(F)F)c4)cc3F)o2)cc1
GI50: 1550 nM
TGI: 5040 nM

CO[C@H]1/C=C(/C)CCC[C@H](C)[C@H](O)[C@@H](C)C(=O)C(C)(C)[C@@H](O)CC(=O)O[C@@H]1/C(C)=C/c1csc(C)n1
GI50: < 10 nM
TGI: 46.3 nM

COc1cc(/C=C/c2cc(O)c(C(C)=O)c(O)c2)cc2c1O[C@]1(C)CC[C@@H](O)C(C)(C)[C@H]1C2
GI50: 4750 nM
TGI: 31200 nM
